Measurements from patent US11926612B2, “Heterocyclic apelin receptor (APJ) agonists and uses thereof” (Research Triangle Institute, priority 2016, dated 2024).

Target: T1, apelin receptor (APJ) (Homo sapiens, UniProt P35414)
T1 sequence (P35414 1-380): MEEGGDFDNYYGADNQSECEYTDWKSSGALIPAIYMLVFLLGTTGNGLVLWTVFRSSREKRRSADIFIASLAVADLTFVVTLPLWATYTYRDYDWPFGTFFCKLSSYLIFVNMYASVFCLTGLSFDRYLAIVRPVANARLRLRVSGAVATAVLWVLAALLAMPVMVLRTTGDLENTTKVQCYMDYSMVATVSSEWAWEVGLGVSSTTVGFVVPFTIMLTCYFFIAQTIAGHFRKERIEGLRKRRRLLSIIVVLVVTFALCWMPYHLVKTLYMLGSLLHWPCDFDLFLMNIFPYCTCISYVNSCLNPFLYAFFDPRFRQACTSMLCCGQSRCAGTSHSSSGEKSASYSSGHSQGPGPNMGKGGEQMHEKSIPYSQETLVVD
Experiment: in vitro activity as apelin agonists (methods of Giddings et al.; Apelin-13 positive control)
Assay type: cell-based
Conditions: apelin agonist activity, average; read-out: EC50 (nM) Ave
From the text: The compounds above were studied for their in vitro activity as apelin agonists using the methods described by Giddings et al. Giddings et al., 2010 Int J High Thro Screen. 1:39-47, the contents of which are hereby incorporated by reference in its entirety. The methods described in Giddings et al. were used as described and Apelin-13 was a positive control.

EC50 [nM]	SMILES
> 10000	O=C(O)C[C@H](CCN1CCCC(F)(F)C1)NC(=O)c1nc(C2CCCC2)n(-c2cccnc2C(F)(F)F)n1 [compound 513, (3S)-3-({5-cyclopentyl-1-[2-(trifluoromethyl)pyridin-3-yl]-1H-1,2,4-triazol-3-yl}formamido)-5-(3,3-difluoropiperidin-1-yl)pentanoic acid]
8.3	O=C(C[C@H](CCN1CCCC(F)(F)C1)NC(=O)c1nc(C2CCCC2)n(-c2ccccc2C(F)(F)F)n1)NC1CCC1 [compound 454, (3S)-N-cyclobutyl-3-({5-cyclopentyl-1-[2-(trifluoromethyl)phenyl]-1H-1,2,4-triazol-3-yl}formamido)-5-(3,3-difluoropiperidin-1-yl)pentanamide]
2540	O=C(C[C@H](CCN1CCCC(F)(F)C1)NC(=O)c1nc(-c2cccnc2C(F)(F)F)n(C2CCCC2)n1)NC1CCC1 [compound 532, (3S)-N-cyclobutyl-3-({1-cyclopentyl-5-[2-(trifluoromethyl)pyridin-3-yl]-1H-1,2,4-triazol-3-yl}formamido)-5-(3,3-difluoropiperidin-1-yl)pentanamide]
9	O=C(C[C@H](CCN1CCCC(F)(F)C1)NC(=O)c1nc(-c2ccccc2C(F)(F)F)n(C2CCCC2)n1)NC1CCC1 [compound 453, (3S)-N-cyclobutyl-3-({1-cyclopentyl-5-[2-(trifluoromethyl)phenyl]-1H-1,2,4-triazol-3-yl}formamido)-5-(3,3-difluoropiperidin-1-yl)pentanamide]
22	CN(C(=O)C[C@H](CCN1CCCC(F)(F)C1)NC(=O)c1nc(C2CCCC2)n(-c2ccccc2C(F)(F)F)n1)c1nccs1 [compound 455, (3S)-3-({5-cyclopentyl-1-[2-(trifluoromethyl)phenyl]-1H-1,2,4-triazol-3-yl}formamido)-5-(3,3-difluoropiperidin-1-yl)-N-methyl-N-(1,3-thiazol-2-yl)pentanamide]
74	O=C(O)C[C@H](CCN1CCC(F)(F)C1)NC(=O)c1nc(C2CCCC2)n(-c2ccccc2C(F)(F)F)n1 [compound 586, (3S)-3-({5-cyclopentyl-1-[2-(trifluoromethyl)phenyl]-1H-1,2,4-triazol-3-yl}formamido)-5-(3,3-difluoropyrrolidin-1-yl)pentanoic acid]
13	O=C(O)C[C@H](CCN1CCCC(F)(F)C1)NC(=O)c1cn(-c2ccccc2C(F)(F)F)c(C2CCCC2)n1 [compound 617, (3S)-3-({2-cyclopentyl-1-[2-(trifluoromethyl)phenyl]-1H-imidazol-4-yl}formamido)-5-(3,3-difluoropiperidin-1-yl)pentanoic acid]
48	CN(C(=O)C[C@H](CCN1CCCC(F)(F)C1)NC(=O)c1nc(-c2ccccc2C(F)(F)F)n(C2CCCC2)n1)c1nccs1 [compound 456, (3S)-3-({1-cyclopentyl-5-[2-(trifluoromethyl)phenyl]-1H-1,2,4-triazol-3-yl}formamido)-5-(3,3-difluoropiperidin-1-yl)-N-methyl-N-(1,3-thiazol-2-yl)pentanamide]
152	O=C(O)C[C@H](CCN1CCCC(F)(F)C1)NC(=O)c1nc(-c2ncccc2C(F)(F)F)n(C2CCCC2)n1 [compound 512, (3S)-3-({1-cyclopentyl-5-[3-(trifluoromethyl)pyridin-2-yl]-1H-1,2,4-triazol-3-yl}formamido)-5-(3,3-difluoropiperidin-1-yl)pentanoic acid]
323	O=C(C[C@H](CCN1CCCC(F)(F)C1)NC(=O)c1nc(C2CCCC2)n(-c2cccnc2C(F)(F)F)n1)NC1CCC1 [compound 531, (3S)-N-cyclobutyl-3-({5-cyclopentyl-1-[2-(trifluoromethyl)pyridin-3-yl]-1H-1,2,4-triazol-3-yl}formamido)-5-(3,3-difluoropiperidin-1-yl)pentanamide]
384	O=C(O)C[C@H](CCN1CCCC(F)(F)C1)NC(=O)c1nc(-c2ccccc2C(F)(F)F)n(C2CCCC2)n1 [compound 462, (3S)-3-({1-cyclopentyl-5-[2-(trifluoromethyl)phenyl]-1H-1,2,4-triazol-3-yl}formamido)-5-(3,3-difluoropiperidin-1-yl)pentanoic acid]

The next lines start with the compound.

SMILES	EC50 [nM]
O=C(C[C@H](CCN1CCCCC1)NC(=O)c1nc(C2CCCC2)n(-c2ccccc2C(F)(F)F)n1)NC1CCC1 [compound 444, (3S)-N-cyclobutyl-3-({5-cyclopentyl-1-[2-(trifluoromethyl)phenyl]-1H-1,2,4-triazol-3-yl}formamido)-5-(piperidin-1-yl)pentanamide]	40
COCCN(C)C(=O)[C@H](CCc1ccccc1)NC(=O)c1nc(-c2ccccc2C(F)(F)F)n(C2CCCC2)n1 [compound 569, (2S)-2-({1-cyclopentyl-5-[2-(trifluoromethyl)phenyl]-1H-1,2,4-triazol-3-yl}formamido)-N-(2-methoxyethyl)-N-methyl-4-phenylbutanamide]	> 10000
CC(C)Cc1c(-c2ccccc2Cl)nc(C(=O)N[C@@H](CCN2CCCC(F)(F)C2)CC(=O)N(C)c2nccs2)n1C [compound 477, (3S)-3-{[4-(2-chlorophenyl)-1-methyl-5-(2-methylpropyl)-1H-imidazol-2-yl]formamido}-5-(3,3-difluoropiperidin-1-yl)-N-methyl-N-(1,3-thiazol-2-yl)pentanamide]	> 10000
COCCN(C)C(=O)[C@H](CCc1ccccc1)NC(=O)c1nc(C2CCCC2)n(-c2ccccc2C(F)(F)F)n1 [compound 543, (2S)-2-({5-cyclopentyl-1-[2-(trifluoromethyl)phenyl]-1H-1,2,4-triazol-3-yl}formamido)-N-(2-methoxyethyl)-N-methyl-4-phenylbutanamide]	754
CN(C(=O)C[C@H](CCN1CCCC(F)(F)C1)NC(=O)c1cn(-c2ccccc2C(F)(F)F)c(C2CCCC2)n1)c1nccs1 [compound 473, (3S)-3-({2-cyclopentyl-1-[2-(trifluoromethyl)phenyl]-1H-imidazol-4-yl}formamido)-5-(3,3-difluoropiperidin-1-yl)-N-methyl-N-(1,3-thiazol-2-yl)pentanamide]	46
O=C(C[C@H](CCN1CCCCC1)NC(=O)c1nc(-c2ccccc2C(F)(F)F)n(C2CCCC2)n1)NC1CCC1 [compound 446, (3S)-N-cyclobutyl-3-({1-cyclopentyl-5-[2-(trifluoromethyl)phenyl]-1H-1,2,4-triazol-3-yl}formamido)-5-(piperidin-1-yl)pentanamide]	310
CC(C)Cc1c(-c2ccccc2Cl)nc(C(=O)N[C@@H](CCN2CCCC(F)(F)C2)CC(=O)O)n1C [compound 476, (3S)-3-{[4-(2-chlorophenyl)-1-methyl-5-(2-methylpropyl)-1H-imidazol-2-yl]formamido}-5-(3,3-difluoropiperidin-1-yl)pentanoic acid]	> 10000
CN(C(=O)C[C@H](CCN1CCCC(F)(F)C1)N(C)C(=O)c1nc(C2CCCC2)n(-c2ccccc2C(F)(F)F)n1)c1nccs1 [compound 474, (3S)-3-(1-{5-cyclopentyl-1-[2-(trifluoromethyl)phenyl]-1H-1,2,4-triazol-3-yl}-N-methylformamido)-5-(3,3-difluoropiperidin-1-yl)-N-methyl-N-(1,3-thiazol-2-yl)pentanamide]	588
CC(C)Cc1c(-c2ccccc2Cl)nc(C(=O)N[C@@H](CCN2CCCC(F)(F)C2)CC(=O)NC2CCC2)n1C [compound 478, (3S)-3-{[4-(2-chlorophenyl)-1-methyl-5-(2-methylpropyl)-1H-imidazol-2-yl]formamido}-N-cyclobutyl-5-(3,3-difluoropiperidin-1-yl)pentanamide]	> 10000
O=C(N[C@@H](CCN1CCCC(F)(F)C1)Cc1nnn[nH]1)c1cn(-c2ccccc2C(F)(F)F)c(C2CCCC2)n1 [compound 620]	8
